{"source": "patent US8466129B2", "about": "“Method of preventing and treating airway remodeling and pulmonary inflammation using A2B adenosine receptor antagonists” (Gilead Sciences, Inc., priority 2004, dated 2013)", "key": {"[1]": {"system": "ADA-deficient (ADA−/−) mice", "assay": "Collagen deposition (Masson's trichrome) and soluble collagen (Sircol assay) in ADA-deficient mice", "assay_type": "in vivo, mouse", "conditions": "1 mg/kg ip twice daily for 17 days", "description": "(§1) Mice treated by intraperitoneal (ip) injection twice daily with 1 mg/kg 3-ethyl-1-propyl -8-{1-[(3-trifluoromethylphenyl)methyl]pyrazol-4-yl}1,3,7-trihydropurine-2,6-dione. The specific protocol is as follows: ADA-deficient (ADA−/−) or ADA containing (ADA+) mice were identified at birth by screening of ADA enzymatic activity in the blood. ADA−/− mice were maintained on ADA enzyme therapy from postnatal day 2 until postnatal day 21. At this stage, treatments with 3-ethyl-1-propyl-8-{1-[(3-trifluoromethylphenyl)methyl] pyrazol -4-yl}-1,3,7-trihydropurine-2,6-dione or vehicle controls (corn oil/ethanol/DMSO) were initiated. Treatments consisted of an ip injection in the morning (8-9 AM) and in the evening (5-6 pm). Treatments were given daily for 17 days, and the experiment was terminated on postnatal day 38. Treatment groups included ADA−/− or ADA+mice receiving 3-ethyl-1-propyl-8-{1-[(3-trifluoromethylphenyl)methyl]pyrazol-4-yl}-1,3,7-trihydropurine-2,6-dione, vehicle, or no treatment. All mice were littermates and were therefore strain matched. Both males and females were included in these experiments. At the termination of the experiment, serum was collected for pharmacokinetics (PK) analysis of 3-ethyl-1-propyl -8-{1-[(3-trifluoromethylphenyl)methyl]pyrazol-4-yl}-1,3,7-trihydropurine -2,6-dione levels and various pulmonary endpoints were examined.\nMice were anesthetized with avertin, and lungs were lavaged four times with 0.3 ml PBS, and 0.95-1 ml of pooled lavage fluid was recovered. Total cell counts were determined using a hemocytometer, and aliquots were cytospun onto microscope slides and stained with Diff-Quick (Dade Nehring) for cellular differentials. Lungs were then infused with 4% paraformaldehyde in PBS at 25 cm of pressure and then fixed overnight at 4° C. Fixed lung samples were rinsed in PBS, dehydrated, and embedded in paraffin. Sections (5 μm) were collected on microscope slides and stained with hematoxylin and eosin (H&E; Shandon-Lipshaw) or Masson's trichrome (EM Science), according to manufacturer's instructions. […]"}, "[2]": {"system": "ADA-deficient (ADA−/−) mice", "assay": "General health and lung histology (H&E) in the ADA-deficient mouse model of adenosine-dependent pulmonary injury", "assay_type": "in vivo", "conditions": "1 mg/kg ip twice daily for 17 days", "source_text": "The model system being used is the adenosine deaminase (ADA)-deficient mouse model of adenosine-dependent pulmonary injury. In this model, elevations in adenosine are associated with increased pulmonary inflammation and airway remodeling. Many of the features seen in these mice resemble those observed in patients with various forms of chronic lung disease including severe asthma, COPD and pulmonary fibrosis. The approach is to treat these mice with the A2B AR antagonist 3-ethyl-1-propyl-8-{1-[(3-trifluoromethylphenyl)methyl]pyrazol -4-yl}-1,3,7-trihydropurine-2,6-dione as a means to probe A2BAR contributions to pulmonary inflammation and injury in ADA-deficient mice, which should provide insight into the efficacy of this drug for the treatment of chronic lung diseases.\nas §1\nADA-deficient mice were generated and genotyped as described (Blackburn et al. (1998) J Biol Chem 273:5093-5100 and Young et al. (2004) J. Immunol. 173:1380-1389. Mice homozygous for the null Ada allele were designated ADA-deficient (ADA^−/−), while mice heterozygous for the null Ada allele were designated as ADA control mice (ADA^+). All mice were on a mixed 129sv/C57BL/6J background and all phenotypic comparisons were performed amongst littermates. Animal care was in accordance with institutional and NIH guidelines. Mice were housed in ventilated cages equipped with microisolator lids and maintained under strict containment protocols. No evidence of bacterial, parasitic, or fungal infection was found, and serologies on cage littermates were negative for 12 of the most common murine viruses.\n(§2) Mice were anesthetized with avertin, and lungs were lavaged four times with 0.3 ml PBS, and 0.95-1 ml of pooled lavage fluid was recovered. Total cell counts were determined using a hemocytometer, and aliquots were cytospun onto microscope slides and stained with Diff-Quick (Dade Nehring) for cellular differentials. Lungs were then infused with 4% paraformaldehyde in PBS at 25 cm of pressure and then fixed overnight at 4° C. Fixed lung samples were rinsed in PBS, dehydrated, and embedded in paraffin. Sections (5 μm) were collected on microscope slides and stained with hematoxylin and eosin (H&E; Shandon-Lipshaw) or Masson's trichrome (EM Science), according to manufacturer's instructions."}, "[3]": {"system": "ADA-deficient (ADA−/−) mice", "assay": "Alveolar airspace size (histology, mean chord length) in ADA-deficient mice", "assay_type": "in vivo, mouse", "conditions": "1 mg/kg ip twice daily for 17 days", "description": "Mice treated by intraperitoneal (ip) injection twice daily with 1 mg/kg 3-ethyl-1-propyl -8-{1-[(3-trifluoromethylphenyl)methyl]pyrazol-4-yl}1,3,7-trihydropurine-2,6-dione. The specific protocol is as follows: ADA-deficient (ADA−/−) or ADA containing (ADA+) mice were identified at birth by screening of ADA enzymatic activity in the blood. ADA−/− mice were maintained on ADA enzyme therapy from postnatal day 2 until postnatal day 21. At this stage, treatments with 3-ethyl-1-propyl-8-{1-[(3-trifluoromethylphenyl)methyl] pyrazol -4-yl}-1,3,7-trihydropurine-2,6-dione or vehicle controls (corn oil/ethanol/DMSO) were initiated. […]\nMice were anesthetized with avertin, and lungs were lavaged four times with 0.3 ml PBS, and 0.95-1 ml of pooled lavage fluid was recovered. Total cell counts were determined using a hemocytometer, and aliquots were cytospun onto microscope slides and stained with Diff-Quick (Dade Nehring) for cellular differentials. […]\nThe size of alveolar airways was determined in pressure infused lungs by measuring mean chord lengths on H&E-stained lung sections (Blackburn et al. (2000) J Exp Med 192:159-170). […] This line grid was subtracted from the lung images using Image-Pro® Plus (Media Cybernetics) image analysis software, and the resultant lines were measured and averaged to give the mean chord length of the alveolar airways. […]"}, "[4]": {"system": "ADA-deficient (ADA−/−) mice", "assay": "Whole lung transcript levels by quantitative real-time RT-PCR in ADA-deficient mice", "assay_type": "in vivo, mouse", "conditions": "1 mg/kg ip twice daily for 17 days, vs vehicle-treated ADA−/− mice", "description": "as §1\nMice were anesthetized and the lungs were rapidly removed and frozen in liquid nitrogen. RNA was isolated from frozen lung tissue using TRIzol Reagent (Life Technologies Inc., Grand Island, N.Y., USA). RNA samples were then DNase treated and subjected to quantitative real-time RT-PCR. The primers, probes and procedures for real-time RT-PCR were described previously in Sun et al. (2005) J Clin Invest 115:35-43. Reactions were carried out on a Smart Cycler rapid thermal cycler system (Cepheid, Sunnyvale, Calif.). Specific transcript levels were determined using Smart Cycler analysis software through comparison to a standard curve generated from the PCR amplification of template dilutions."}, "[5]": {"system": "ADA-deficient (ADA−/−) mice", "assay": "Bronchiolalveolar lavage (BAL) cell counts and cellular differentials in ADA-deficient mice", "assay_type": "in vivo, mouse", "conditions": "1 mg/kg ip twice daily for 17 days", "description": "as §1, §2"}, "[6]": {"system": "ADA-deficient (ADA−/−) mice", "assay": "α-smooth muscle actin immunostaining of lung myofibroblasts in ADA-deficient mice", "assay_type": "in vivo, mouse", "conditions": "1 mg/kg ip twice daily for 17 days", "description": "as §1, with “examined. […]” for “examined.”"}, "[7]": {"conditions": "ADA−/− mice, vs vehicle-treated ADA−/− mice"}, "[8]": {"conditions": "listed as adenosine A2B receptor antagonist, 1 mg/kg"}}, "note": "“Also recorded” adds a separate entry of the source."}
{"smiles": "CCCn1c(=O)c2[nH]c(-c3cnn(Cc4cccc(C(F)(F)F)c4)c3)nc2n(CC)c1=O", "note": "[3-ethyl-1-propyl-8-(1-{[3-(trifluoromethyl)phenyl]methyl}pyrazol-4-yl)-1,3,7-trihydropurine-2,6-dione]", "values": [{"measurement": "collagen deposition in the lungs (Masson's trichrome)", "setting": "[1]; ADA+ control mice", "value": "little to no"}, {"measurement": "collagen deposition in the airways (Masson's trichrome)", "setting": "[1]; ADA−/− mice", "value": "reduction"}, {"measurement": "increase in collagen production: collagen protein levels in BAL fluid", "setting": "[1]; [7]", "value": "largely prevented"}, {"measurement": "alveolar airway simplification (H&E histology)", "setting": "[2]; ADA+ control mice", "value": "not evident"}, {"measurement": "pulmonary inflammation (H&E histology)", "setting": "[2]; ADA+ control mice", "value": "not evident"}, {"measurement": "pulmonary inflammation and airway destruction", "setting": "[2]; ADA−/− mice", "value": "significant reduction"}, {"measurement": "alveolar airway simplification (H&E histology)", "setting": "[2]; [7]", "value": "significant decrease"}, {"measurement": "pulmonary inflammation (H&E histology)", "setting": "[2]; [7]", "value": "significant decrease"}, {"measurement": "outward signs of severe respiratory distress (rapid breathing and hunched posture)", "setting": "[2]; ADA−/− mice, seen in vehicle-treated or untreated ADA−/− mice", "value": "not observed"}, {"measurement": "distal airway enlargement (histology)", "setting": "[3]", "value": "prevented"}, {"measurement": "distal airway size (mean cord length)", "setting": "[3]", "value": "agreed with the histological observations"}, {"measurement": "Eotaxin I level, whole lung RNA", "setting": "[4]", "value": "significantly lower"}, {"measurement": "IL-4 level, whole lung RNA", "setting": "[4]", "value": "did not change"}, {"measurement": "IL-5 level, whole lung RNA", "setting": "[4]", "value": "did not change"}, {"measurement": "IL-6 level, whole lung RNA", "setting": "[4]", "value": "significantly lower"}, {"measurement": "MMP-9 expression, whole lung RNA", "setting": "[4]", "value": "diminished"}, {"measurement": "MMP-12 expression, whole lung RNA", "setting": "[4]", "value": "diminished"}, {"measurement": "RANTES level, whole lung RNA", "setting": "[4]", "value": "did not change"}, {"measurement": "TARC level, whole lung RNA", "setting": "[4]", "value": "significantly lower"}, {"measurement": "TIMP-1 expression, whole lung RNA", "setting": "[4]", "value": "diminished"}, {"measurement": "TNFα level, whole lung RNA", "setting": "[4]", "value": "did not change"}, {"measurement": "increase in collagen production: whole lung α1-procollagen transcript levels", "setting": "[4]", "value": "largely prevented"}, {"measurement": "monocyte chemoattractant proteins (MCPs) level, whole lung RNA", "setting": "[4]", "value": "did not change"}, {"measurement": "TGF-β1 expression (transcripts), whole lung", "setting": "[4]; [8]", "value": "lower levels; also recorded: decreased"}, {"measurement": "osteopontin (OPN) expression (transcripts), whole lung", "setting": "[4]; [8]", "value": "lower levels; also recorded: decreased"}, {"measurement": "plasminogen activator inhibitor-1 (PAI-1) expression (transcripts), whole lung", "setting": "[4]; [8]", "value": "lower levels; also recorded: decreased"}, {"measurement": "airway inflammation", "setting": "[5]", "value": "significant decrease"}, {"measurement": "alveolar macrophage activation (BAL cells)", "setting": "[5]", "value": "reduction"}, {"measurement": "alveolar macrophages in BAL", "setting": "[5]", "value": "reduction"}, {"measurement": "eosinophils in BAL", "setting": "[5]", "value": "reduction"}, {"measurement": "lymphocytes in BAL", "setting": "[5]", "value": "reduction"}, {"measurement": "neutrophils in BAL", "setting": "[5]", "value": "reduction"}, {"measurement": "number of total cells recovered from BAL", "setting": "[5]; vs vehicle-treated ADA−/− mice", "value": "significant reduction"}, {"measurement": "α-sma positive cells in the distal airways (myofibroblast accumulation)", "setting": "[6]", "value": "Few to no"}]}
